Assay results reported in patent publication US12643903B2, “Bifunctional compounds for degradation of EGFR and related methods of use” (BeiGene, Ltd., priority 2020, dated 2026).

Legend:
Type in all cases: cell-based
Settings in all cases: 16 h treatment, EGFR degradation by HTRF
[1] = target: T1, EGFR (Homo sapiens, UniProt P00533, DEL746-750); assay: Cell Degradation 2: EGFR degradation in HCC827 cells, HTRF assay
T1 construct: endogenous in cells; host or cells: HCC827
Method in brief: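 Compound-treated HCC827 cells were lysed after 16 h and EGFR measured by HTRF (337 nm excitation, 665/620 nm emission) after overnight antibody incubation at room temperature. DC50 came from a four-parameter fit of percent inhibition against compound concentration.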

[2] = target: T2, EGFR (Homo sapiens, UniProt P00533, L858R/T790M); assay: Cell Degradation 1: EGFR degradation in H1975 cells, HTRF assay
T2 construct: endogenous in cells; host or cells: H1975
Method in brief: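 H1975 cells treated with compound for 16 h, lysed 1 h at room temperature. EGFR measured by HTRF after overnight antibody incubation (665/620 nm). DC50 from four-parameter logistic fit of percent inhibition against concentration.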

[3] = target: T3, EGFR LTC (Homo sapiens, UniProt P00533, C797S/L858R/T790M); assay: Cell Degradation 3: EGFR degradation in BaF3 cells (LTC), HTRF assay
T3 construct: expressed in transfected cells; host or cells: BaF3
Method in brief: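 BaF3 cells expressing EGFR (LTC triple mutant C797S/L858R/T790M or DTC) exposed to compounds for 16 h, 8 doses from 4-fold dilution, 0.2% DMSO. Residual EGFR quantified by HTRF in lysates (triple mutant lysate diluted 1:1); DC50 from four-parameter logistic fit.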

[4] = test system: EGFR DTC; assay: Cell Degradation 3: EGFR degradation in BaF3 cells (DTC), HTRF assay
Description: Cell Degradation 3 Cell Treatment
BaF3 cells are treated with compounds diluted in 0.2% DMSO, dilution is done according to the following protocol: (1) make 500× stock solution in DMSO from 5 mM by 4-fold dilution, total 8 doses were included; (2) make 2× solution in cell culture medium by transferring 0.5 μl 500× stock solution into 125 μl medium; (3) 30 μl of 2× solution is added to cells and incubate for 16 h.
After 16 h treatment, add 20 μl 4×lysis buffer to each well; seal the plate and incubate 1 hour at room temperature on a plate shaker; Once the cells are lysed, 16 μL of cell lysate are transferred to a PE 384-well HTRF detection plate (for triple mutant cells, the lysate were diluted by the qual volume 1×lysis buffer before transfer); 4 μL of pre-mixed HTRF antibodies are added to each well; Cover the plate with a plate sealer, spin 1000 rpm for 1 min, Incubate overnight at room temperature; Read on BMG PheraStar with HTRF protocol (337 nm-665 nm-620 nm).
The IC50 (DC50) value of a compound can be obtained by fitting the following equation Y=Bottom+(TOP−Bottom)/(1+((IC50/X)^hillslope))
Wherein, X and Y are known values, and IC50, Hillslope, Top and Bottom are the parameters obtained by fitting with software. Y is the inhibition percentage (calculated from the equation), X is the concentration of the compound; IC50 is the concentration of the compound when the 50% inhibition is reached. The smaller the IC50 value is, the stronger the inhibitory ability of the compound is. Vice versa, the higher the IC50 value is, the weaker the ability the inhibitory ability of the compound is; Hillslope represents the slope of the fitted curve, generally around 1*; Bottom represents the minimum value of the curve obtained by data fitting, which is generally 0%±20%; Top represents the maximum value of the curve obtained by data fitting, which is generally 100%±20%. The experimental data were fitted by calculating and analyzing with Dotmatics data analysis software.

T3 sequence (P00533 25-1210 T790M/C797S/L858R): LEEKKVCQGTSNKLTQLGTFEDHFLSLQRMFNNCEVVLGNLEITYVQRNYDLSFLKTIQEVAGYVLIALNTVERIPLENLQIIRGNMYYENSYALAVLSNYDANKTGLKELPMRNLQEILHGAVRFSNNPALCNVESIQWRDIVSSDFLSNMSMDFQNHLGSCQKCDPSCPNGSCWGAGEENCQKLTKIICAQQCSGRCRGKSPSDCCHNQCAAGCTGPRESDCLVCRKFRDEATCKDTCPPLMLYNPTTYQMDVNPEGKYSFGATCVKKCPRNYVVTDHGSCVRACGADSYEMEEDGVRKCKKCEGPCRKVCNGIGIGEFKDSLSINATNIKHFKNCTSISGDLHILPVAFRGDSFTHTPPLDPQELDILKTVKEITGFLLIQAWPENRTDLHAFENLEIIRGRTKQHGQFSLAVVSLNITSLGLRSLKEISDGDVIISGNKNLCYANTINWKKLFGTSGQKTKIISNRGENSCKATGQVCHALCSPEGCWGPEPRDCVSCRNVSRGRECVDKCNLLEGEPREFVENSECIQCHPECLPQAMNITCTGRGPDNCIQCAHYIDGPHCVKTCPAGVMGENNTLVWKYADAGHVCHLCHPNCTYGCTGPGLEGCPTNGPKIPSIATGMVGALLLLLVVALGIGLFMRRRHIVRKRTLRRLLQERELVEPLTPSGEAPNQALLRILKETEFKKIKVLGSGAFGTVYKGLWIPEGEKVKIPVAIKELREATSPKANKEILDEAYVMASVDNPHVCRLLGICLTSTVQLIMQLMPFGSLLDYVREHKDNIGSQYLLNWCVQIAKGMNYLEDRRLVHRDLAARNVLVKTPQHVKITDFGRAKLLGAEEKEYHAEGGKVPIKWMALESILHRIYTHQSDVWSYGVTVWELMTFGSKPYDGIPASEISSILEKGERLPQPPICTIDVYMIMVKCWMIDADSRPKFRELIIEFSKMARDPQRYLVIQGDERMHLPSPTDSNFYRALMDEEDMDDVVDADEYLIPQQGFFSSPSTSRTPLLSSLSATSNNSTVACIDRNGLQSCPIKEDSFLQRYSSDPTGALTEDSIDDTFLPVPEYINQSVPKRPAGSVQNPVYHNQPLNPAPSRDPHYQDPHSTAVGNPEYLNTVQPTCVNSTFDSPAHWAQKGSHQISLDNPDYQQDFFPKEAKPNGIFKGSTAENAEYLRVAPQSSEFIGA
T2 sequence (P00533 25-1210 T790M/L858R): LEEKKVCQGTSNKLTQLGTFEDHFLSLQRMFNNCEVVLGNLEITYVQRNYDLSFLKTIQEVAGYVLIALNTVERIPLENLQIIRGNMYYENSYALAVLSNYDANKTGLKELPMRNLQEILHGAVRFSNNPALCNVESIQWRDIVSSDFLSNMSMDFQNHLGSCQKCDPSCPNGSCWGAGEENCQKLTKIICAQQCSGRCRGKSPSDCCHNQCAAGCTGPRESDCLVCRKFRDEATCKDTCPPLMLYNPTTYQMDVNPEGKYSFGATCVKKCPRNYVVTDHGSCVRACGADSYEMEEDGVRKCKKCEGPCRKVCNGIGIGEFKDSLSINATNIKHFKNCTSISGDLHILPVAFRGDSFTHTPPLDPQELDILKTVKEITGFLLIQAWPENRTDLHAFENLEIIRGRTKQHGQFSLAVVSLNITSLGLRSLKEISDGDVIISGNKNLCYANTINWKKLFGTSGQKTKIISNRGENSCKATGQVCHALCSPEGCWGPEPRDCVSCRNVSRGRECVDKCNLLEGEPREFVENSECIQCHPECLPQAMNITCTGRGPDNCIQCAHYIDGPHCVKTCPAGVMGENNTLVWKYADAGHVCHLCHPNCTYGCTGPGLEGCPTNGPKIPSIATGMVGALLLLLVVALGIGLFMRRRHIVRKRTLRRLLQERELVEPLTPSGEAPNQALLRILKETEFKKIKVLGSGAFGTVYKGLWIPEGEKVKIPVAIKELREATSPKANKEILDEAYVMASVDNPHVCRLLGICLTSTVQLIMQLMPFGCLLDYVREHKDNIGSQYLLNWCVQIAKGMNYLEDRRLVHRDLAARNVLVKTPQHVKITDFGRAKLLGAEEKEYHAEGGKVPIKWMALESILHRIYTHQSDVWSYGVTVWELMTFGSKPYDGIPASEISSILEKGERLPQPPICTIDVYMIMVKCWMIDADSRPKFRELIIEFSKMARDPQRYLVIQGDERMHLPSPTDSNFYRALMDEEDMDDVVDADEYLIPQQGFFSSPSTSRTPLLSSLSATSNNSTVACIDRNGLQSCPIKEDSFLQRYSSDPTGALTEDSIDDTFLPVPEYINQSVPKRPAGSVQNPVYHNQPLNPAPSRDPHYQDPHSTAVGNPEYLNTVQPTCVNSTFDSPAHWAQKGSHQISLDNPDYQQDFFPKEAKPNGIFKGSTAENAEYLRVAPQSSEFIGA
T1 sequence (P00533 with tags, fused parts or gaps DEL746-750): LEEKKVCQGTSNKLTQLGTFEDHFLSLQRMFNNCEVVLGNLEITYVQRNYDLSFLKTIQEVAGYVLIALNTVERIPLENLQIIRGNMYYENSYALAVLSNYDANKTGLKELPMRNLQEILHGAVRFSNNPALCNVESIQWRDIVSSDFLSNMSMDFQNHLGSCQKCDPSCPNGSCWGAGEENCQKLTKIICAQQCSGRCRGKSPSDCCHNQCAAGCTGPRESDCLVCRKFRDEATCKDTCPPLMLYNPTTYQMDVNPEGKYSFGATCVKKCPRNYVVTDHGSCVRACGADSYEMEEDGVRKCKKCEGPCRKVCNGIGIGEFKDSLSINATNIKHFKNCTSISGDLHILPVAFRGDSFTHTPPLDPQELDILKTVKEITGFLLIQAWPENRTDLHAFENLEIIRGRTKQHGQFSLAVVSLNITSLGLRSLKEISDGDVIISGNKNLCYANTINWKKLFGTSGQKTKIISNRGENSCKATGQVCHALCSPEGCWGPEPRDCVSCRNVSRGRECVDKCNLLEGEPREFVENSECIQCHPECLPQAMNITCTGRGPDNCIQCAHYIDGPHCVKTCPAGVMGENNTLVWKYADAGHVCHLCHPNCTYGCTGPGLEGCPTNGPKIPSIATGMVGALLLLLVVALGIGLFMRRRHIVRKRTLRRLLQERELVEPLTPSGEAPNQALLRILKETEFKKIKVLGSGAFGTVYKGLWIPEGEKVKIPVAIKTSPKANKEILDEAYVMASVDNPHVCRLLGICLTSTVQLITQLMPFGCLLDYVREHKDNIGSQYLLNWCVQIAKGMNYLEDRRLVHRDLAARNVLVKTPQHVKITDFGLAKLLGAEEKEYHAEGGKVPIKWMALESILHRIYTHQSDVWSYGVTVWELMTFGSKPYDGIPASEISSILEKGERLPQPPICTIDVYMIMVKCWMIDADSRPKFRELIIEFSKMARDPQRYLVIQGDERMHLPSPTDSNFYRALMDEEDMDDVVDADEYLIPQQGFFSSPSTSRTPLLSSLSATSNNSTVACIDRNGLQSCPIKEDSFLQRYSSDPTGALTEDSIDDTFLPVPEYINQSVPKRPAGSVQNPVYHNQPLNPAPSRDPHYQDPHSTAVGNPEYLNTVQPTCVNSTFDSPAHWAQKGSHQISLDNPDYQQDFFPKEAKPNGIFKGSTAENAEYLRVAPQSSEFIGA
T1 sequence (Q96SW2 whole entry partner): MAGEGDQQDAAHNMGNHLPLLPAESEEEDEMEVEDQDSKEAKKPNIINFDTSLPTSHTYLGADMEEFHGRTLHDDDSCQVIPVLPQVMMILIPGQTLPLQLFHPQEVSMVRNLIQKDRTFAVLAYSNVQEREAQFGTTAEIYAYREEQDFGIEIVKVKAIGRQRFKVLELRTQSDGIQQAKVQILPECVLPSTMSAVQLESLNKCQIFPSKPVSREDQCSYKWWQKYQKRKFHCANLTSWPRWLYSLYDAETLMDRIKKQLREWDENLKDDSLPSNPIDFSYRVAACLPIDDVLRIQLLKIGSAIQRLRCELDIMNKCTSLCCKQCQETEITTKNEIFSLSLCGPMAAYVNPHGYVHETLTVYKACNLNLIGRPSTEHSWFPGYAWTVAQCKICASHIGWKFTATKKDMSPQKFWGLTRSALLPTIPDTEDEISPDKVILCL

Row | Compound | DC50 [1] [nM] | DC50 [2] [nM] | DC50 [3] [nM] | DC50 [4] [nM]
1 | CS(=O)(=O)N1CCc2cccc(Nc3nc(Nc4ccc(N5CCC(N6CCN(CCC7CCN(c8ccc(C9CCC(=O)NC9=O)cc8)CC7)CC6)CC5)c(F)c4)nc4[nH]ccc34)c21 (centres unmarked) [Example 8, 3-(4-(4-(2-(4-(1-(2-fluoro-4-((4-((1-(methylsulfonyl)indolin-7-yl)amino)-7H-pyrrolo[2,3-d]pyrimidin-2-yl)amino)phenyl)piperidin-4-yl)piperazin-1-yl)ethyl)piperidin-1-yl)phenyl)piperidine-2,6-dione] | 12.7 | 9.1 | 8.4 | 13.4
2 | CS(=O)(=O)N1CCc2cccc(Nc3nc(Nc4ccc(N5CCC(N6CCN(C(=O)CCN7CCN(c8ccc9c(c8)C(=O)N(C8CCC(=O)NC8=O)C9=O)CC7)CC6)CC5)c(F)c4)nc4[nH]ccc34)c21 (centres unmarked) [Example 15, 2-(2,6-dioxopiperidin-3-yl)-5-(4-(3-(4-(1-(2-fluoro-4-((4-((1-(methylsulfonyl)indolin-7-yl)amino)-7H-pyrrolo[2,3-d]pyrimidin-2-yl)amino)phenyl)piperidin-4-yl)piperazin-1-yl)-3-oxopropyl)piperazin-1-yl)isoindoline-1,3-dione] | 9.2 | 10 | 68.3 | 35.8
3 | CS(=O)(=O)N1CCc2cccc(Nc3nc(Nc4ccc(N5CCC(N6CCN(CCCC7CN(c8ccc9c(c8)C(=O)N(C8CCC(=O)NC8=O)C9=O)C7)CC6)CC5)c(F)c4)nc4[nH]ccc34)c21 (centres unmarked) [Example 19, 2-(2,6-dioxopiperidin-3-yl)-5-(3-(3-(4-(1-(2-fluoro-4-((4-((1-(methylsulfonyl)indolin-7-yl)amino)-7H-pyrrolo[2,3-d]pyrimidin-2-yl)amino)phenyl)piperidin-4-yl)piperazin-1-yl)propyl)azetidin-1-yl)isoindoline-1,3-dione] | 10.8 | 6.03 | 24.2 | 16.7
4 | COc1cc(N2CCC(N3CCN(CCc4ccc(C5CCC(=O)NC5=O)cc4)CC3)CC2)ccc1Nc1ncc(Cl)c(Nc2cccc3c2N(S(C)(=O)=O)CC3)n1 (centres unmarked) [Example 34, 3-(4-(2-(4-(1-(4-((5-chloro-4-((1-(methylsulfonyl)indolin-7-yl)amino)pyrimidin-2-yl)amino)-3-methoxyphenyl)piperidin-4-yl)piperazin-1-yl)ethyl)phenyl)piperidine-2,6-dione] | 6.7 | 7 | 276 | 38.2
5 | COc1cc(N2CCC(N3CCN(CCC4CCN(c5ccc(C6CCC(=O)NC6=O)c(F)c5)CC4)CC3)CC2)ccc1Nc1ncc(Cl)c(Nc2cccc3c2N(S(C)(=O)=O)CC3)n1 (centres unmarked) [Example 36, 3-(4-(4-(2-(4-(1-(4-((5-chloro-4-((1-(methylsulfonyl)indolin-7-yl)amino)pyrimidin-2-yl)amino)-3-methoxyphenyl)piperidin-4-yl)piperazin-1-yl)ethyl)piperidin-1-yl)-2-fluorophenyl)piperidine-2,6-dione] | 8.6 | 15.5 | 42.6 | 26.3
6 | COc1cc(N2CCC(N3CCN(CC4CN(c5cc(F)c(C6CCC(=O)NC6=O)c(F)c5)C4)CC3)CC2)c(C)cc1Nc1ncc(Br)c(Nc2cccc3c2N(S(C)(=O)=O)CC3)n1 (centres unmarked) [Example 184, 3-(4-(3-((4-(1-(4-((5-bromo-4-((1-(methylsulfonyl)indolin-7-yl)amino)pyrimidin-2-yl)amino)-5-methoxy-2-methylphenyl)piperidin-4-yl)piperazin-1-yl)methyl)azetidin-1-yl)-2,6-difluorophenyl)piperidine-2,6-dione] | – | – | 33 | 27
7 | COc1cc(N2CCC(N3CCN(CCc4cc(F)c(C5CCC(=O)NC5=O)c(F)c4)CC3=O)CC2)c(C)cc1Nc1ncc(Br)c(Nc2cccc3c2N(S(C)(=O)=O)CC3)n1 (centres unmarked) [Example 185, 3-(4-(2-(4-(1-(4-((5-bromo-4-((1-(methylsulfonyl)indolin-7-yl)amino)pyrimidin-2-yl)amino)-5-methoxy-2-methylphenyl)piperidin-4-yl)-3-oxopiperazin-1-yl)ethyl)-2,6-difluorophenyl)piperidine-2,6-dione] | – | – | 18 | 4
8 | COc1cc(N2CCC(N3CCN(C(=O)C4CCN(c5cc(F)c(C6CCC(=O)NC6=O)c(F)c5)C4)CC3)CC2)c(C)cc1Nc1ncc(Br)c(Nc2cccc3c2N(S(C)(=O)=O)CC3)n1 (centres unmarked) [Example 187, 3-(4-(3-(4-(1-(4-((5-bromo-4-((1-(methylsulfonyl)indolin-7-yl)amino)pyrimidin-2-yl)amino)-5-methoxy-2-methylphenyl)piperidin-4-yl)piperazine-1-carbonyl)pyrrolidin-1-yl)-2,6-difluorophenyl)piperidine-2,6-dione] | – | – | 19 | 14
9 | COc1cc(N2CCC(N3CCN(C(=O)C4CN(c5cc(F)c(C6CCC(=O)NC6=O)c(F)c5)C4)CC3)CC2)c(C)cc1Nc1ncc(Br)c(Nc2cccc3c2N(S(C)(=O)=O)CC3)n1 (centres unmarked) [Example 188, 3-(4-(3-(4-(1-(4-((5-bromo-4-((1-(methylsulfonyl)indolin-7-yl)amino)pyrimidin-2-yl)amino)-5-methoxy-2-methylphenyl)piperidin-4-yl)piperazine-1-carbonyl)azetidin-1-yl)-2,6-difluorophenyl)piperidine-2,6-dione] | – | – | 15 | 6

Further molecules by falling DC50 [3], results first:

Row | DC50 [1] [nM] | DC50 [2] [nM] | DC50 [3] [nM] | DC50 [4] [nM] | Compound
10 | 8.4 | 7.2 | 203 | 48.1 | COc1cc(N2CCC(N3CCN(CCC4CCN(c5ccc(C6CCC(=O)NC6=O)cc5)CC4)CC3)CC2)ccc1Nc1ncc(Cl)c(Nc2cccc3c2N(S(C)(=O)=O)CC3)n1 (centres unmarked) [Example 35, 3-(4-(4-(2-(4-(1-(4-((5-chloro-4-((1-(methylsulfonyl)indolin-7-yl)amino)pyrimidin-2-yl)amino)-3-methoxyphenyl)piperidin-4-yl)piperazin-1-yl)ethyl)piperidin-1-yl)phenyl)piperidine-2,6-dione]
11 | – | – | 27 | 6 | COc1cc(N2CCC(N3CCN(CCC4CCN(c5cc(F)c(C6CCC(=O)NC6=O)c(F)c5)CC4)CC3=O)CC2)c(C)cc1Nc1ncc(Br)c(Nc2cccc3c2N(S(C)(=O)=O)CC3)n1 (centres unmarked) [Example 186, 3-(4-(4-(2-(4-(1-(4-((5-bromo-4-((1-(methylsulfonyl)indolin-7-yl)amino)pyrimidin-2-yl)amino)-5-methoxy-2-methylphenyl)piperidin-4-yl)-3-oxopiperazin-1-yl)ethyl)piperidin-1-yl)-2,6-difluorophenyl)piperidine-2,6-dione]
12 | 19.8 | 9.5 | 19.9 | 11.6 | CS(=O)(=O)N1CCc2cccc(Nc3nc(Nc4ccc(N5CCC(N6CCN(CCc7ccc(C8CCC(=O)NC8=O)c(F)c7)CC6)CC5)c(F)c4)nc4[nH]ccc34)c21 (centres unmarked) [Example 3, 3-(2-fluoro-4-(2-(4-(1-(2-fluoro-4-((4-((1-(methylsulfonyl)indolin-7-yl)amino)-7H-pyrrolo[2,3-d]pyrimidin-2-yl)amino)phenyl)piperidin-4-yl)piperazin-1-yl)ethyl)phenyl)piperidine-2,6-dione]
13 | 2 | – | 9 | 4 | COc1cc(N2CCC(N3CCN(C(=O)C4CN(c5ccc6c(c5)CN(C5CCC(=O)NC5=O)C6=O)C4)CC3)CC2)c(C)cc1Nc1ncc(Br)c(Nc2cccc3c2N(S(C)(=O)=O)CC3)n1 (centres unmarked) [Example 172, 3-(5-(3-(4-(1-(4-((5-bromo-4-((1-(methylsulfonyl)indolin-7-yl)amino)pyrimidin-2-yl)amino)-5-methoxy-2-methylphenyl)piperidin-4-yl)piperazine-1-carbonyl)azetidin-1-yl)-1-oxoisoindolin-2-yl)piperidine-2,6-dione]
